Common to all, as to assay type: functional, cell-based
In one test the test system is MCF7. Description: Cytotoxicity against human MCF7 cells after 72 hrs by sulforhodamine B assay. The following applies: MCF7, 72 h. For orientation: In SRB staining, fixed cells bind dye roughly in proportion to their protein.
A further test has as its system SF-268. Description: Cytotoxicity against human SF268 cells after 72 hrs by sulforhodamine B assay. The following applies: SF-268, 72 h.
A further test deals with NCI-H460. Kind of test: Cytotoxicity against human NCI-H460 cells after 72 hrs by sulforhodamine B assay. The following applies: NCI-H460, 72 h.

Peptide text beside a SMILES is read from it.

As a reminder, the IC50 is the concentration that gives 50% inhibition. `CC(C)C[C@@H]1NC(=O)[C@H](C(C)C)NC(=O)[C@H](Cc2ccc(O)cc2)N(C)C(=O)[C@H](Cc2ccccc2)NC(=O)CN(C)C(=O)[C@@H]2CCCN2C(=O)[C@@H](Cc2ccccc2)N(C)C1=O` [Cordyheptapeptide C] (HELM PEPTIDE1{F.[meY].V.L.[CN([C@H](Cc1ccccc1)C(=O)[*:2])[*:1]].P.[Sar]}$PEPTIDE1,PEPTIDE1,1:R1-7:R2$$$V2.0): the values for the concentration for half-maximal inhibition (IC50) with MCF7, with SF-268 and in the test on NCI-H460 were 3 µM, 3.7 µM and 11.6 µM, respectively.
The like results for `CC(C)C[C@@H]1NC(=O)[C@H](C(C)C)NC(=O)[C@H](Cc2ccc(O)cc2)N(C)C(=O)[C@H](Cc2ccccc2)NC(=O)CN(C)C(=O)[C@@H]2CCCN2C(=O)[C@@H](Cc2ccc(O)cc2)N(C)C1=O` [Cordyheptapeptide D] were, in that order, 82.7 µM, 45.6 µM and more than 100 µM.
On the same counts, the results for `CC[C@@H](C)[C@@H]1NC(=O)[C@H](Cc2ccc(O)cc2)N(C)C(=O)[C@H](Cc2ccccc2)NC(=O)CN(C)C(=O)[C@@H]2CCCN2C(=O)[C@@H](Cc2ccc(O)cc2)N(C)C(=O)[C@H](CC(C)C)NC1=O` [Cordyheptapeptide E] are 2.7 µM, 3.2 µM and 4.5 µM.

These data come from ChEMBL document CHEMBL2062458, “Cyclic heptapeptides, cordyheptapeptides C-E, from the marine-derived fungus Acremonium persicinum SCSIO 115 and their cytotoxic activities” (J Nat Prod, 2012).
